Structures are written as SMILES. pIC50: −log10 of the molar value.

This assay deals with human IDO1 (Homo sapiens, UniProt P14902). The assay can be described thus: Assessment of human IDO-1 inhibitory activity in Hela cells (Interferon-gamma stimulated HeLa cells, Ehrlich reagent, absorbance 490 nm). Conditions: Hela Human IDO-1 cellular assay. The class given is cell-based. More on the design: endogenous in cells; host or cells: HeLa cells stimulated with interferon-gamma. In a few lines: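 HeLa cells pre-incubated with compound 1 h at 37 °C, then stimulated with human IFN-γ (10 ng/ml final) or murine IFN-γ (5 ng/ml final) for 18 h. Kynurenine read with Ehrlich reagent at 490 nm after TCA (3%) and 50 °C treatment; IC50 normalized to unstimulated (100%) and IFN-γ-only (0%) wells.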
Chain of human IDO1 (P14902 whole entry): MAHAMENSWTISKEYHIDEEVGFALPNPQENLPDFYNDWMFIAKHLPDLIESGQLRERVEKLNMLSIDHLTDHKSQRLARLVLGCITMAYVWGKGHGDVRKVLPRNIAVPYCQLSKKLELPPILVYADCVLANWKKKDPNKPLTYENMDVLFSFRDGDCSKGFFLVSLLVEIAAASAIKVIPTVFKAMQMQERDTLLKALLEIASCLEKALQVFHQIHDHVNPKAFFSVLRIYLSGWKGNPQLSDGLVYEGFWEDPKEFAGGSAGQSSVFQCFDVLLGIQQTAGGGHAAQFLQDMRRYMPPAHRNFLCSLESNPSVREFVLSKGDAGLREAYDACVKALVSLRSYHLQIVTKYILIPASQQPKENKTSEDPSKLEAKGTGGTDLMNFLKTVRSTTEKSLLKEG

For the compound `COCC(CC(=O)O)c1ccc(N(C)C2CCOCC2)c(Nc2ccc(C#N)cn2)c1` (single isomer, unassigned) [Example 874, 3-(3-((5-cyanopyridin-2-yl)amino)-4-(methyl (tetrahydro-2H-pyran-4-yl)amino)phenyl)-4-methoxybutanoic acid], the negative-log IC50 (pIC50) is more than 8.30. The figure for `COCC(CC(=O)O)c1ccc(N(C)C2CCOCC2)c(Nc2ccc(C#N)c(F)c2)c1` (single isomer, unassigned) [Example 875, 3-(3-((4-cyano-3-fluorophenyl)amino)-4-(methyl(tetrahydro-2H-pyran-4-yl)amino)phenyl)-4-methoxybutanoic acid] is more than 7.30; for `COCC(CC(=O)O)c1ccc(N(C)C2CCOCC2)c(Nc2ccc(C#N)cc2F)c1` (single isomer, unassigned) [Example 876, 3-(3-((4-cyano-2-fluorophenyl)amino)-4-(methyl(tetrahydro-2H-pyran-4-yl)amino)phenyl)-4-methoxybutanoic acid] it is more than 7.30; for `COCC(CC(=O)O)c1ccc(N(C)C2CCOCC2)c(Nc2ccc(Cl)cc2)c1` (single isomer, unassigned) [Example 877, 3-(3-((4-chlorophenyl)amino)-4-(methyl(tetrahydro-2H-pyran-4-yl)amino)phenyl)-4-methoxybutanoic acid] it is less than 7.30. Compound `CCOc1ncc(Nc2cc(C(COC)CC(=O)O)ccc2N(C)C2CCOCC2)cn1` (single isomer, unassigned) [Example 878, 3-(3-((2-ethoxypyrimidin-5-yl)amino)-4-(methyl (tetrahydro-2H-pyran-4-yl)amino)phenyl)-4-methoxybutanoic acid] had a negative-log IC50 (pIC50) of less than 7.30.

Regarding `COCC(CC(=O)O)c1ccc(N(C)C2CCOCC2)c(NC(=O)Nc2ccc(Cl)cc2F)c1` (single isomer, unassigned) [Example 879, 3-(3-(3-(4-Chloro-2-fluorophenyl)ureido)-4-(methyl(tetrahydro-2H-pyran-4-yl)amino)phenyl)-4-methoxybutanoic acid], the pIC50 was less than 7.30. The figure for `COCC(CC(=O)O)c1ccc(N(C)C2CCOCC2)c(Nc2ccc(C#N)cn2)c1` (single isomer, unassigned) [Example 881, 3-(3-((5-cyanopyridin-2-yl)amino)-4-(methyl (tetrahydro-2H-pyran-4-yl)amino)phenyl)-4-methoxybutanoic acid] is less than 7.30. `COCC(CC(=O)O)c1ccc(N(C)C2CCOCC2)c(Nc2ccc(Cl)cc2)c1` (single isomer, unassigned) [Example 884, 3-(3-((4-chlorophenyl)amino)-4-(methyl(tetrahydro-2H-pyran-4-yl)amino)phenyl)-4-methoxybutanoic acid] had a pIC50 of more than 8.30. The result for `COCC(CC(=O)O)c1ccc(N(C)C2CCOCC2)c(NC(=O)Nc2ccc(Cl)cc2F)c1` (single isomer, unassigned) [Example 886, 3-(3-(3-(4-Chloro-2-fluorophenyl)ureido)-4-(methyl(tetrahydro-2H-pyran-4-yl)amino)phenyl)-4-methoxybutanoic acid] reads less than 7.30; that for `CCC(CC(=O)O)c1ccc(N2CCOC[C@H]2C(C)C)c(Nc2ccc(C#N)cc2)c1` (single isomer, unassigned) [Example 887], more than 8.30. As for `CCC(CC(=O)O)c1ccc(N2CCOC[C@H]2C(C)C)c(Nc2ccc(Cl)cc2)c1` (single isomer, unassigned) [Example 888], the pIC50 was more than 8.30. The result for `CCC(CC(=O)O)c1ccc(N2CCOC[C@H]2C(C)C)c(Nc2ccc(F)cc2)c1` (single isomer, unassigned) [Example 889] reads more than 8.30; that for `CCc1ccc(Nc2cc(C(CC)CC(=O)O)ccc2N2CCOC[C@H]2C(C)C)cc1` (single isomer, unassigned) [Example 890], more than 7.30.

Consider `COCC(CC(=O)O)c1ccc(N2CCOC[C@H]2C(C)C)c(Nc2ccc(C#N)cc2)c1` (single isomer, unassigned) [Example 909], for which the negative logarithm of the IC50 (pIC50) was more than 7.30. The result for `COCC(CC(=O)O)c1ccc(N2CCOC[C@H]2C(C)C)c(Nc2ccc(Cl)cc2)c1` (single isomer, unassigned) [Example 910] reads more than 7.30; that for `COCC(CC(=O)O)c1ccc(N2CCOC[C@H]2C(C)C)c(NC(=O)Nc2ccc(C#N)cc2)c1` (single isomer, unassigned) [Example 911], less than 7.30; that for `COCC(CC(=O)O)c1ccc(N2CCOC[C@H]2C(C)C)c(Nc2ccc(C#N)cc2)c1` (single isomer, unassigned) [Example 912], more than 8.30. Compound `COCC(CC(=O)O)c1ccc(N2CCOC[C@H]2C(C)C)c(Nc2ccc(Cl)cc2)c1` (single isomer, unassigned) [Example 913] had a pIC50 of more than 8.30. The figure for `CCOc1ncc(Nc2cc(C(COC)CC(=O)O)ccc2N2CCOC[C@H]2C(C)C)cn1` (single isomer, unassigned) [Example 914] is less than 7.30. In turn, `CCN(c1c(F)cc(C(COC)CC(=O)O)cc1Nc1ccc(C#N)cc1)C1CCOCC1` (single isomer, unassigned) [Example 916, 3-(3-((4-Cyanophenyl)amino)-4-(ethyl(tetrahydro-2H-pyran-4-yl)amino)-5-fluorophenyl)-4-methoxybutanoic acid] showed a pIC50 of more than 8.30. The figure for `CCN(c1c(F)cc(C(COC)CC(=O)O)cc1Nc1ccc(C#N)cc1)C1CCOCC1` (single isomer, unassigned) [Example 918, 3-(3-((4-Cyanophenyl)amino)-4-(ethyl(tetrahydro-2H-pyran-4-yl)amino)-5-fluorophenyl)-4-methoxybutanoic acid] is more than 7.30; for `CCN(c1c(F)cc(C(COC)CC(=O)O)cc1NC(=O)Nc1ccc(Cl)cc1F)C1CCOCC1` (single isomer, unassigned) [Example 919, 3-(3-(3-(4-Chloro-2-fluorophenyl)ureido)-4-(ethyl(tetrahydro-2H-pyran-4-yl)amino)-5-fluorophenyl)-4-methoxybutanoic acid] it is less than 7.30. Compound `COCC(CC(=O)O)c1cc(F)c(N(CC(C)C)CC(C)C)c(Nc2ccc(Cl)cc2)c1` (single isomer, unassigned) [Example 920, 3-(3-((4-Chlorophenyl)amino)-4-(diisobutylamino)-5-fluorophenyl)-4-methoxybutanoic acid] gave a pIC50 of more than 8.30. The result for `CCc1ccc(Nc2cc(C(COC)CC(=O)O)cc(F)c2N(CC(C)C)CC(C)C)cc1` (single isomer, unassigned) [Example 922, 3-(4-(diisobutylamino)-3-((4-ethylphenyl)amino)-5-fluorophenyl)-4-methoxybutanoic acid] reads more than 7.30. The result for `CCOc1ccc(Nc2cc(C(COC)CC(=O)O)cc(F)c2N(CC(C)C)CC(C)C)cc1` (single isomer, unassigned) [Example 923, 3-(4-(diisobutylamino)-3-((4-ethoxyphenyl)amino)-5-fluorophenyl)-4-methoxybutanoic acid] reads more than 7.30. The figure for `COCC(CC(=O)O)c1cc(F)c(N(CC(C)C)CC(C)C)c(Nc2ccc3c(c2)OC(F)(F)O3)c1` (single isomer, unassigned) [Example 924, 3-(3-((2,2-difluorobenzo[d] [1,3]dioxol-5-yl)amino)-4-(diisobutylamino)-5-fluorophenyl)-4-methoxybutanoic acid] is more than 7.30.

Source of the values: patent US9790169B2, “IDO inhibitors” (BRISTOL-MYERS SQUIBB COMPANY, priority 2015, dated 2017).
